Read-outs that look alike come from different tables or passages of the source.

In general, IC50 refers to the point on the concentration scale where inhibition reaches its midpoint.

Assay [1] deals with cellular GLS activity in PC3 cells (Homo sapiens (Human), UniProt O94925). Kind of assay: GLS Cell Potency Assay (PC3 coupled assay measuring cellular glutamate depletion). It counts as cell-based. The note with it: PC3 cells, 6 h incubation, glutamate depletion; read-out: Assay b) GLS cell MOA Mean IC50. An excerpt:
(§1) The following assays were used to measure the effects of the compounds described herein: a) GLS Enzyme Potency Assay; b) GLS Cell Potency Assay; c) GLS Cell Proliferation Assay. During the description of the assays, generally: • i. The following abbreviations have been used: CO2=Carbon dioxide; DMEM=Dulbecco's Modified Eagle Medium; DMSO=Dimethyl sulphoxide; EDTA=Ethylenediaminetetraacetic acid; EGTA=Ethylene glycol tetraacetic acid; FCS=Foetal calf serum; h=Hour(s); NBS=Non-binding surface; SDS=Sodium dodecyl sulphate; TRIS=Tris(Hydroxymethyl)aminomethane. • ii. IC50 values were calculated using a smart fitting model in Genedata.
Assay b): GLS Cell Potency Assay
Compounds were assessed for their potential to inhibit cellular GLS activity by use of a PC3 coupled assay measuring cellular glutamate depletion. […] DMSO concentration was maintained at 0.3% by back filling with DMSO solution. PC3 cells were grown in phenol free DMEM, 10% dialyzed FCS, 2 mM glutamine and following dispersal by trypsinisation were plated at 5.6×10^3 cells per well in 40 μl of growth medium directly into the 384 well assay plates containing dispensed compound. After incubation for 6 h at 37° C., 5% CO2 growth media was aspirated and cells lysed in 15 μl of buffer containing 10 mM TRIS pH7.4, 100 mM NaCl, 1 mM EDTA, 1 mM EGTA, 1 mM NaF, 20 mM Na4P2O7, 2 mM Na3VO4, 1% Triton X-100, 10% glycerol, 0.1% SDS and 0.5% deoxycholate.

A further assay concerns the target GLS1 (Homo sapiens (Human), UniProt O94925). Kind of assay: GLS Enzyme Potency Assay (Glutamate Oxidase/AmplexRed coupled assay). Type of assay: biochemical.
Description: as §1
Assay a): GLS Enzyme Potency Assay
A Glutamate Oxidase/AmplexRed coupled assay was used to measure the ability of compounds to bind to and inhibit the activity of GLS1 in vitro. […] GLS1 was diluted to 2× working concentration and incubated at room temperature to allow the tetrameric/dimeric forms to reach steady state. Assay measurements were performed in buffer comprising 50 mM TRIS pH 7.8, 100 mM NaPO4, pH 7.8, 0.001% v/v Tween20. Purified recombinant GLS1 protein was diluted in assay buffer to 12 nM and pre-incubated at room temperature for 30 minutes. […] DMSO concentration was maintained at 2% by back filling with DMSO solution. 3 μL of diluted GLS1 protein (12 nM) was then dispensed into each well using a BioRaptr automated dispenser (Beckman-Coulter) and incubated for 15 minutes at room temperature. 3 μL of 100 mM glutamine diluted in assay buffer was then added and the reaction incubated at room temperature for 60 minutes. […] An artefact version of the assay where the 6His tagged GLS protein and glutamine were replaced with assay buffer was also used to rule out non specific effects on the assay components.

In a further assay the test system is NCI-H1703 cells. Kind of assay: GLS Cell Proliferation Assay (NCI-H1703 cell proliferation). It counts as cell-based.
Description: as §1
Assay c): GLS Cell Proliferation Assay
The ability of compounds to inhibit cell growth was measured using a 384 well plate NCI-H1703 cell proliferation assay. NCI-H1703 cells were grown in phenol red free RPMI1640, 10% FCS and 2 mM glutamine and seeded at a density of 750 cells per well in 40 μl of growth medium into clear-bottom 384 well assay plates (Corning product code 3712) and incubated for 24 h at 37° C., 5% CO2. […] DMSO concentration was maintained at 0.3% by back filling with DMSO solution. Plates were incubated for 5 days at 37° C., 5% CO2, Sytox Green and Saponin added to final concentration of 2 μM and 0.25% respectively and incubated for 6 h prior to analysis. […] IC50 values were calculated by curve fitting to max inhibition of day zero growth using GeneData software analysis.

The mark [2] stands for this setting: 6His tagged GLS protein (amino acids 63-669), recombinant; read-out: Assay a) enz IC50.
[3] abbreviates: NCI-H1703 cells, 5 days; read-out: Assay c) Prolif Mean IC50.
[4] abbreviates: Homo sapiens, NCI-H1703, 120 h, NCI-H1703 cells, 5 days; read-out: Assay c) Prolif Mean IC50.

Sequence of GLS1 (O94925 63-669): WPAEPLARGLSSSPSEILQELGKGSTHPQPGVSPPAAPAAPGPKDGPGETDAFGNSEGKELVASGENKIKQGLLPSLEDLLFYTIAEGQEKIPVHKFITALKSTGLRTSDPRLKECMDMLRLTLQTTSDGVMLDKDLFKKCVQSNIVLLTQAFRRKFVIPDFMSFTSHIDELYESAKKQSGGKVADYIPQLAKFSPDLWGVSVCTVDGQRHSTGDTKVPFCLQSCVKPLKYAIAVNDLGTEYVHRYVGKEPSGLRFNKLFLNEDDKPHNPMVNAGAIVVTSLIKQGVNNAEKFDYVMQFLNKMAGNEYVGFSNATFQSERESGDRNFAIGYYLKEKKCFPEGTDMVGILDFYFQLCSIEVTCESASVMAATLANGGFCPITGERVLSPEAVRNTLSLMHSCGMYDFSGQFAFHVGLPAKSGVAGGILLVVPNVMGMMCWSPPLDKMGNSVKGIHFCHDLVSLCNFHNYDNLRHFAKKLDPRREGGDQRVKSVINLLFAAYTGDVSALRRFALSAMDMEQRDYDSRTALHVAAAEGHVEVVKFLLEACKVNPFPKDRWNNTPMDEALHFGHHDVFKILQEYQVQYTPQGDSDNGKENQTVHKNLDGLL
Sequence of cellular GLS activity in PC3 cells (O94925 73-669): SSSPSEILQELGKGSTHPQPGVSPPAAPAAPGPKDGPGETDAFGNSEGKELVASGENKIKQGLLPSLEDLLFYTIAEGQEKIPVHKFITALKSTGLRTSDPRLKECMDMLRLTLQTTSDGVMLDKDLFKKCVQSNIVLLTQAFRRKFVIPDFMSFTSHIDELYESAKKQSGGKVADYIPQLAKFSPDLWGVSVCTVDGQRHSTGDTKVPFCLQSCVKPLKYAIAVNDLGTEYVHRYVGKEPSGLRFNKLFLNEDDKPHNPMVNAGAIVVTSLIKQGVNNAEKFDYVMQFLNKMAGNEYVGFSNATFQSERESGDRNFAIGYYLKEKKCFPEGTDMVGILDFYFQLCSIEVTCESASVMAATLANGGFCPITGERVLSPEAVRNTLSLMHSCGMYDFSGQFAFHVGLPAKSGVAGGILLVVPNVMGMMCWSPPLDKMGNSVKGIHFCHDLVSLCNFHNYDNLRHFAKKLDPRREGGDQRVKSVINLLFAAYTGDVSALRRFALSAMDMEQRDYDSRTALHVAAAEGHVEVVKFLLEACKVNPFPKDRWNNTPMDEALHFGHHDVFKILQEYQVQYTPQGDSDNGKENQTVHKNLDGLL

Take `COC[C@H](C(=O)Nc1nnc(N[C@@H]2CCN(c3ccc(C)nn3)C2)s1)c1ccccc1` (single isomer, unassigned) [45(b)]: the figures for the IC50 (in assay [1]; on GLS1 (read-out: Assay a) enz IC50)) were 11.3 nM and 146 nM, respectively.
With `CO[C@H](C(=O)Nc1nnc(N[C@@H]2CCN(c3cccnn3)C2)s1)c1cccc(N2CC(F)C2)c1` (single isomer, unassigned) [Example 1(a)], the IC50 in assay [1] was 0.83 nM; at GLS1 (setting [2]), 20.6 nM.
On to `CO[C@H](C(=O)Nc1nnc(N[C@@H]2CCN(c3cccnn3)C2)s1)c1cccc(N2CC(F)C2)c1` (single isomer, unassigned) [Example 1(b)], for which the IC50 came to 18.4 nM in assay [1] and 72.6 nM on GLS1 (read-out: Assay a) enz IC50).
For the compound `COC(C(=O)Nc1nnc(N[C@@H]2CCN(c3nccnn3)C2)s1)c1cccc(C2COC2)c1` (single isomer, unassigned) [Example 24], the IC50 is 3.48 nM in assay [1], 29.1 nM with NCI-H1703 cells (setting [3]) and 52.6 nM at GLS1 (setting [2]).
Turning to `COC(C(=O)Nc1nnc(N[C@@H]2CCN(c3nccnn3)C2)s1)c1cccc(C2COC2)c1` (single isomer, unassigned) [Example 25], the concentration for half-maximal inhibition (IC50) was found to be 86.1 nM in assay [1], 831 nM with NCI-H1703 cells (setting [3]) and 1840 nM on GLS1 (setting [2]).
For the compound `COC(C(=O)Nc1nnc(N[C@@H]2CCN(c3ccc(F)nn3)C2)s1)c1cccc(N2CC(F)C2)c1` (single isomer, unassigned) [Example 27], the IC50 in assay [1] stood at 1.4 nM; in the assay with NCI-H1703 cells (setting [3]) it was 13.5 nM; at GLS1 (setting [2]), 149 nM.
`COC(C(=O)Nc1nnc(N[C@@H]2CCN(c3ccc(F)nn3)C2)s1)c1cccc(N2CC(F)C2)c1` (single isomer, unassigned) [Example 28]: the IC50 in assay [1] is 51.5 nM; in the assay with NCI-H1703 cells (setting [3]), 262 nM; at GLS1 (setting [2]), 195 nM.
On to `CCOC(C(=O)Nc1nnc(N[C@@H]2CCN(c3cccnn3)C2)s1)c1cccc(N2CC(F)(F)C2)c1` (single isomer, unassigned) [Example 29], for which the IC50 in assay [1] is 0.404 nM; in the assay on NCI-H1703 cells (setting [3]), 1.96 nM; on GLS1 (setting [2]), 51.1 nM.
`CCOC(C(=O)Nc1nnc(N[C@@H]2CCN(c3cccnn3)C2)s1)c1cccc(N2CC(F)(F)C2)c1` (single isomer, unassigned) [Example 30]: the IC50 in assay [1] stood at 3.22 nM; in the assay on NCI-H1703 cells (setting [3]) it was 37.7 nM; at GLS1 (setting [2]) it was 1370 nM.
On the same counts, the results for `CCOC(C(=O)Nc1nnc(N[C@@H]2CCN(c3cccnn3)C2)s1)c1cccc(N2CC(F)C2)c1` (single isomer, unassigned) [Example 31] are 0.573 nM, 3.21 nM and 96.8 nM.
In the same order, the values of `COC(C(=O)Nc1nnc(N[C@@H]2CCN(c3ccc(C)nn3)C2)s1)c1cccc(N2CC(F)C2)c1` (single isomer, unassigned) [Example 35] are 1.21 nM, 9.03 nM and 77 nM.
In the same order, the values of `COC(C(=O)Nc1nnc(N[C@@H]2CCN(c3ccc(C)nn3)C2)s1)c1cccc(N2CC(F)C2)c1` (single isomer, unassigned) [Example 36] are 21.8 nM, 394 nM and 612 nM.
Turning to `COc1cc(OC)cc(C(OC)C(=O)Nc2nnc(N[C@@H]3CCN(c4cccnn4)C3)s2)c1` (single isomer, unassigned) [Example 43], the IC50 in assay [1] was 0.292 nM; with NCI-H1703 cells (setting [3]), 2.24 nM; on GLS1 (setting [2]), 20 nM.
`COc1cc(OC)cc(C(OC)C(=O)Nc2nnc(N[C@@H]3CCN(c4cccnn4)C3)s2)c1` (single isomer, unassigned) [Example 44]: the IC50 was 8.85 nM in assay [1], 59.1 nM in the assay on NCI-H1703 cells (setting [3]) and 48.2 nM at GLS1 (setting [2]).
With `COC[C@H](C(=O)Nc1nnc(N[C@@H]2CCN(c3ccc(C)nn3)C2)s1)c1ccccc1` (single isomer, unassigned) [Example 45(a)], the IC50 in assay [1] came out at 147 nM.
For the compound `COc1cc(OC)cc([C@H](OC)C(=O)Nc2nnc(N[C@@H]3CCN(c4cccnn4)C3)s2)c1` [Example 21(a), (2S)-2-(3,5-Dimethoxyphenyl)-2-methoxy-N-[5-[[(3R)-1-pyridazin-3-ylpyrrolidin-3-yl]amino]-1,3,4-thiadiazol-2-yl]acetamide], the figures for the IC50 (in assay [1]; in the assay with NCI-H1703 cells (setting [4]); on GLS1 (setting [2])) were 0.292 nM, 2.24 nM and 20 nM, respectively.
Regarding `COc1cc(OC)cc([C@@H](OC)C(=O)Nc2nnc(N[C@@H]3CCN(c4cccnn4)C3)s2)c1` [Example 21(b), (2R)-2-(3,5-Dimethoxyphenyl)-2-methoxy-N-[5-[[(3R)-1-pyridazin-3-ylpyrrolidin-3-yl]amino]-1,3,4-thiadiazol-2-yl]acetamide], the values for the IC50 (in assay [1]; in the assay on NCI-H1703 cells (setting [4]); at GLS1 (setting [2])) were 8.85 nM, 59.1 nM and 48.2 nM, respectively.
In the case of `CCO[C@@H](C(=O)Nc1nnc(N[C@@H]2CCN(c3cccnn3)C2)s1)c1cccc(N2CC(OC)C2)c1` [Example 22(b), (2R)-2-ethoxy-2-[3-(3-methoxyazetidin-1-yl)phenyl]-N-[5-[[(3R)-1-pyridazin-3-ylpyrrolidin-3-yl]amino]-1,3,4-thiadiazol-2-yl]acetamide], the IC50 in assay [1] came out at 10.6 nM; in the assay on NCI-H1703 cells (setting [4]), 178 nM.
In the case of `COc1cc(OC)cc(C(OC)C(=O)Nc2nnc(N[C@@H]3CCN(c4cccnn4)C3)s2)c1` (stereo partly drawn) [Example 23, 2-(3,5-dimethoxyphenyl)-2-methoxy-N-[5-[[(3R)-1-pyridazin-3-ylpyrrolidin-3-yl]amino]-1,3,4-thiadiazol-2-yl]acetamide], the IC50 worked out at 8.85 nM in assay [1], 59.1 nM in the assay on NCI-H1703 cells (setting [4]) and 48.2 nM on GLS1 (setting [2]).
In the same order, the values of `COc1cc(OC)cc(C(OC)C(=O)Nc2nnc(N[C@@H]3CCN(c4ccc(F)nn4)C3)s2)c1` (stereo partly drawn) [Example 26, 2-(3,5-dimethoxyphenyl)-N-[5-[[(3R)-1-(6-fluoropyridazin-3-yl)pyrrolidin-3-yl]amino]-1,3,4-thiadiazol-2-yl]-2-methoxy-acetamide] are 0.334 nM, 4.2 nM and 23.5 nM.
For the compound `CCOC(C(=O)Nc1nnc(N[C@@H]2CCN(c3cccnn3)C2)s1)c1cccc(N2CC(OC)C2)c1` (stereo partly drawn) [Example 34, 2-ethoxy-2-[3-(3-methoxyazetidin-1-yl)phenyl]-N-[5-[[(3R)-1-pyridazin-3-ylpyrrolidin-3-yl]amino]-1,3,4-thiadiazol-2-yl]acetamide], the IC50 in assay [1] came to 10.6 nM; in the assay with NCI-H1703 cells (setting [3]) it was 18 nM.
For `COC(C(=O)Nc1nnc(N[C@@H]2CCN(c3cccnn3)C2)s1)c1ccc(F)c(N2CC(F)(F)C2)c1` (stereo partly drawn) [Example 38, 2-[3-(3,3-difluoroazetidin-1-yl)-4-fluoro-phenyl]-2-methoxy-N-[5-[[(3R)-1-pyridazin-3-ylpyrrolidin-3-yl]amino]-1,3,4-thiadiazol-2-yl]acetamide], the IC50 was 303 nM with NCI-H1703 cells (setting [3]) and 190 nM on GLS1 (setting [2]).
`COC(C(=O)Nc1nnc(N[C@@H]2CCN(c3ccc(C)nn3)C2)s1)c1cccc(N2CC(F)(F)C2)c1` (stereo partly drawn) [Example 40, 2-[3-(3,3-difluoroazetidin-1-yl)phenyl]-2-methoxy-N-[5-[[(3R)-1-(6-methylpyridazin-3-yl)pyrrolidin-3-yl]amino]-1,3,4-thiadiazol-2-yl]acetamide]: the IC50 was 82.5 nM with NCI-H1703 cells (setting [3]) and 311 nM at GLS1 (setting [2]).
